The source made the active and inactive calls.

The nature of data set [1]: AUC (0 to infinity) in Sprague-Dawley rat at 5 mg/kg, iv by HPLC-UV analysis. The format is ADME, organism-based. The conditions noted are these: in vivo.
Data set [2] deals with Dual specificity mitogen-activated protein kinase kinase 1 (Homo sapiens) (UniProt Q02750). Kind of data set: Inhibition of MAP2K1 (unknown origin) at 0.1 uM preincubated for 10 mins followed by substrate and ATP addition and measured after 60 mins by ADP-Glo reagent based luminescence analysis. The settings on record: time 70.0 min.
Dual specificity mitogen-activated protein kinase kinase 1 (Homo sapiens), sequence (Q02750 whole entry): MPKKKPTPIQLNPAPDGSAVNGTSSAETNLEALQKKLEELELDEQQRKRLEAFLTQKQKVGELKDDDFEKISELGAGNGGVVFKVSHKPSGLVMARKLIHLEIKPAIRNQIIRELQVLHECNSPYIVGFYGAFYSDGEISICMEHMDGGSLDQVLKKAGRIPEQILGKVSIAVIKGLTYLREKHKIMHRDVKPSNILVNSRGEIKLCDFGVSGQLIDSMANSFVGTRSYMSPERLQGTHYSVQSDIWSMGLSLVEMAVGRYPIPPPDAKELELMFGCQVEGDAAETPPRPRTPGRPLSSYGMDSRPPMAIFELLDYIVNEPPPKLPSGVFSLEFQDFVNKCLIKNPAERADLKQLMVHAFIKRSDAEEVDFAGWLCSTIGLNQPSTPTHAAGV
The subject of data set [3] is A549. Kind of data set: Inhibition of TGF-beta1-induced epithelial-to-mesenchymal transition in human A549 cells assessed as reduction in fibronectin expression at 0.3 uM incubated for 1 hr followed by TGF-beta1 stimulation for 48 hrs by western blot analysis. In kind it is functional, cell-based. The conditions noted are these: time 49.0 hrs. A general note: Immunoblotting shows a protein as a band on a membrane.

Data set [4] has as its system Mus musculus. Kind of data set: Antifibrotic activity against bleomycin-induced idiopathic pulmonary fibrosis C57BL/6 mouse model assessed as restoration of pulmonary respiratory function by measuring increase in minute volume at 3 to 10 mg/kg, ip bid for 3 weeks by spirometry analysis. In kind it is functional, organism-based. The conditions noted are these: dose 3-10 mg/kg.

Data set [5] addresses T1, Dual specificity mitogen-activated protein kinase kinase 4 (Homo sapiens) (UniProt P45985).
T1 sequence (whole entry): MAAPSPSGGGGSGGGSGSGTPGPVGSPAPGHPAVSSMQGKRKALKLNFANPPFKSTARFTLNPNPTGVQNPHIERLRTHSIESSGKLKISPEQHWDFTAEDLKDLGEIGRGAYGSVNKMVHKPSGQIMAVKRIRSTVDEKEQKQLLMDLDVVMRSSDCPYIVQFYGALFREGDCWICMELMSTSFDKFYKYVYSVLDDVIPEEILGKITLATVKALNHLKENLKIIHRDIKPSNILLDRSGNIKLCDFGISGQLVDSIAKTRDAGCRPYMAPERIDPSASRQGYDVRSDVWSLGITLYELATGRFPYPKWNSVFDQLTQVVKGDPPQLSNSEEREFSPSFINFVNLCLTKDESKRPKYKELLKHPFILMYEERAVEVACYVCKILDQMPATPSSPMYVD
Kind of data set: Inhibition of MAP2K4 (unknown origin) at 0.1 uM preincubated for 10 mins followed by substrate and ATP addition and measured after 60 mins by ADP-Glo reagent based luminescence analysis. The conditions noted are these: time 70.0 min. (In general: ADP-Glo turns the ADP formed in a reaction into a luminescent signal.)

Data set [6] concerns Mus musculus. Kind of data set: Antifibrotic activity against bleomycin-induced idiopathic pulmonary fibrosis C57BL/6 mouse model assessed as restoration of pulmonary respiratory function by measuring increase in tidal volume at 3 to 10 mg/kg, ip bid for 3 weeks by spirometry analysis. The format is functional, organism-based. The settings on record: dose 3-10 mg/kg.
In data set [7] the target is Mitogen-activated protein kinase 3 (Homo sapiens) (UniProt P27361). The experiment in a line: Inhibition of Erk1 (unknown origin) at 0.1 uM preincubated for 10 mins followed by substrate and ATP addition and measured after 60 mins by ADP-Glo reagent based luminescence analysis. The settings on record: time 70.0 min.
Mitogen-activated protein kinase 3 (Homo sapiens), sequence (P27361 whole entry): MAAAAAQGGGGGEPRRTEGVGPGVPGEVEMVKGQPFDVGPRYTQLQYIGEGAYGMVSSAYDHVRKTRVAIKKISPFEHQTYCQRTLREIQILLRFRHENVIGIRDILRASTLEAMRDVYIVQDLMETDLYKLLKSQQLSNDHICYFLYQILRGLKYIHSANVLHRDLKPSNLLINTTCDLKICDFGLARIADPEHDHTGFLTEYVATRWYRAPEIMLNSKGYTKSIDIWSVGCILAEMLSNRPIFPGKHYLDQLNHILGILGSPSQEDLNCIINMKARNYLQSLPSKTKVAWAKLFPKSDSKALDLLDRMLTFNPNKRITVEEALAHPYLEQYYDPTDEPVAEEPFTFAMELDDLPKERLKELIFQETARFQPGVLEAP
Data set [8] in a line: Volume of distribution in Sprague-Dawley rat at 10 mg/kg, ip by HPLC-UV analysis. The format is ADME, organism-based. The settings on record: in vivo.
The species named for data set [9] is Homo sapiens. Kind of data set: Selectivity ratio of IC50 for inhibition of N-terminal GST-tagged human recombinant full length JNK2 expressed in baculovirus-infected Sf9 cell to IC50 for inhibition of N-terminal GST-tagged human recombinant full length JNK1 expressed in baculovirus-infected Sf9 cells.
The test system of data set [10] is Mus musculus. Kind of data set: Antifibrotic activity against bleomycin-induced idiopathic pulmonary fibrosis C57BL/6 mouse model assessed as restoration of pulmonary respiratory function by measuring increase in expiratory volume at 3 to 10 mg/kg, ip bid for 3 weeks by spirometry analysis. The format is functional, organism-based. The conditions noted are these: dose 3-10 mg/kg.

Data set [11] can be described thus: Volume of distribution in Sprague-Dawley rat at 5 mg/kg, iv by HPLC-UV analysis. The format is ADME, organism-based. The settings on record: in vivo.
Data set [12] has as its system Mus musculus. The experiment in a line: Inhibition of EMT transition in bleomycin-induced idiopathic pulmonary fibrosis C57BL/6 mouse model assessed as decrease in alpha-SMA expression in lungs at 3 to 10 mg/kg, ip bid for 3 weeks by immunohistochemical staining analysis. In kind it is functional, organism-based. The settings on record: dose 3-10 mg/kg.
Data set [13] has as its target Mitogen-activated protein kinase 8 (Mus musculus) (UniProt Q91Y86). Kind of data set: Inhibition of JNK1 in mouse NIH3T3 cells assessed as decrease in anisomycin-stimulated c-Jun phosphorylation incubated for 1 hr followed by incubation with anisomycin for 1 hr by western blot analysis. The settings on record: dose 0.1-3 µM, time 2.0 hrs.
Data set [14] addresses T2, Dual specificity mitogen-activated protein kinase kinase 3 (Homo sapiens) (UniProt P46734).
T2 sequence (whole entry): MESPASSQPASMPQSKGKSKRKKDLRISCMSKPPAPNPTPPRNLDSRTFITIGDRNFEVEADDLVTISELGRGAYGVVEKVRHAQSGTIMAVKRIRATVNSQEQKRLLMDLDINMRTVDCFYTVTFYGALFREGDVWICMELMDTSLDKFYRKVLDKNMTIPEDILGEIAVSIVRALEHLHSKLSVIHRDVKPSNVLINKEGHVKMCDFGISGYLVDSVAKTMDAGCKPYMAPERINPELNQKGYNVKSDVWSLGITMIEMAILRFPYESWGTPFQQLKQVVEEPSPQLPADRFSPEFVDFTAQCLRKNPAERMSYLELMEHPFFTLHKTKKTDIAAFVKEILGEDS
Kind of data set: Inhibition of MAP2K3 (unknown origin) at 0.1 uM preincubated for 10 mins followed by substrate and ATP addition and measured after 60 mins by ADP-Glo reagent based luminescence analysis. The settings on record: time 70.0 min.

Data set [15] in a line: Half-life in Sprague-Dawley rat at 5 mg/kg, iv by HPLC-UV analysis. The format is ADME, organism-based. The conditions noted are these: in vivo.
Data set [16] is described as follows: Clearance in Sprague-Dawley rat at 10 mg/kg, ip by HPLC-UV analysis. The format is ADME, organism-based. The conditions noted are these: in vivo.
Data set [17] in a line: Clearance in Sprague-Dawley rat at 5 mg/kg, iv by HPLC-UV analysis. The format is ADME, organism-based. The settings on record: in vivo.
Data set [18] is described as follows: Bioavailability in Sprague-Dawley rat at 10 mg/kg, ip by HPLC-UV analysis. The format is ADME, organism-based. The conditions noted are these: in vivo.

Mitogen-activated protein kinase 8 (Mus musculus), sequence (Q91Y86 whole entry, looked up): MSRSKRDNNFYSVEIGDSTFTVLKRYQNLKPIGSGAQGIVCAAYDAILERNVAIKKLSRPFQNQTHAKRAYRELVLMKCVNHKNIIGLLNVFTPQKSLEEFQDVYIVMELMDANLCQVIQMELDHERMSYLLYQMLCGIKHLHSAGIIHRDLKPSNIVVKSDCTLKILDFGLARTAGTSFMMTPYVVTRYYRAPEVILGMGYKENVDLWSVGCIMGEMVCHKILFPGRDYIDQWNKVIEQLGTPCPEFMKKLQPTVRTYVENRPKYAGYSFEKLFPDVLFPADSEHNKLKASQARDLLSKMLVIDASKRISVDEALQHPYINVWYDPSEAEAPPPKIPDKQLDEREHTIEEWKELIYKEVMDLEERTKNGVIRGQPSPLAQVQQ

Turning to `COc1ccc(Nc2ncc(Br)c(Nc3ccc(OCCN(C)C)cc3C(N)=O)n2)cc1`, the AUC(0-inf) in [1] worked out at 4.66 µg·h/mL. Besides, the inhibition in [2] was 90.9%; in data set [5] it was 91.5%; in data set [7] it was 22.9%; in data set [13] it was “Dose-dependent-effect”; in data set [14] it was 51.6%. Besides, the inhibition entry in data set [3] and in [12] was “Active” throughout. The outcome in [4], in data set [6] and in data set [10] was Active. Moreover, the Vd in [8] was 29.3 L/kg; in data set [11] it was 0.93 L/kg. For the same molecule, the Ratio IC50 in data set [9] is 3.3. Also, in data set [15], the half-life is 6.6 h. The molecule further returned a CL in [16] of 1.594 L/h/kg. Further, the clearance in data set [17] is 1.3 L/h/kg. Also, the bioavailability in [18] was found to be 69%.

The term AUC(0-inf) denotes the area under the concentration-time curve extrapolated to infinity. As usually defined, the inhibition is the change of the read-out against control, counted positive when it falls. A word on the half-life: it is the time needed for the level to fall by half in the phase considered. Lower therefore signals rapid decline. A word on the clearance: it is the rate of elimination divided by the concentration. Read a low clearance as a low capacity for elimination. Broadly, the bioavailability is dose-corrected exposure relative to a reference, in per cent.

Source of the values: ChEMBL document CHEMBL6153021, “Structure Optimization of c-Jun N-terminal Kinase 1 Inhibitors for Treating Idiopathic Pulmonary Fibrosis” (J Med Chem, 2024).
